The test system of series [1] is soluble epoxide hydrolase (sEH). Briefly: Fluorescent assay for mouse and human soluble epoxide hydrolase (CMNPC substrate). The series is classed as biochemical. From the text:
Fluorescent Assay for Mouse and Human Soluble Epoxide Hydrolase
Recombinant mouse sEH (MsEH) and human sEH (HsEH) were produced in a baculovirus expression system as previously reported. Grant et al., J. Biol. Chem., 268:17628-17633 (1993); Beetham et al., Arch. Biochem. Biophys., 305:197-201 (1993). The expressed proteins were purified from cell lysate by affinity chromatography. Wixtrom et al., Anal. Biochem., 169:71-80 (1988). Protein concentration was quantified using the Pierce BCA assay using bovine serum albumin as the calibrating standard. The preparations were at least 97% pure as judged by SDS-PAGE and scanning densitometry. They contained no detectable esterase or glutathione transferase activity which can interfere with the assay. The assay was also evaluated with similar results in crude cell lysates or homogenate of tissues.
The IC50s for each inhibitor were determined according to the following procedure:
Cyano(2-methoxynaphthalen-6-yl)methyl (3-phenyloxiran-2-yl)methyl carbonate (CMNPC; Jones P. D. et. al.; Analytical Biochemistry 2005; 343: pp. 66-75)
Bis/Tris HCl 25 mM pH 7.0 containing 0.1 mg/mL of BSA (buffer A) CMNPC at 0.25 mM in DMSO.
Mother solution of enzyme in buffer A (Mouse sEH at 6 μg/mL and Human sEH at 5 μg/mL).
Inhibitor dissolved in DMSO at the appropriate concentration.
In a black 96 well plate, fill all the wells with 150 μL of buffer A.
Add 2 μL of DMSO in well A2 and A3, and then add 2 μL of inhibitor solution in A1 and A4 through A12.
Add 150 μL of buffer A in row A, then mix several time and transfer 150 μL to row B. Repeat this operation up to row H. The 150 μL removed from row H is discarded.
Add 20 μL of buffer A in column 1 and 2, then add 20 μL of enzyme solution to column 3 to 12.
Incubate the plate for 5 minutes in the plate reader at 30° C.
During incubation prepare the working solution of substrate by mixing 3.68 mL of buffer A (4×0.920 mL) with 266 μL (2×133 μL) of substrate solution).
At t=0, add 30 μL of working substrate solution with multi-channel pipette labeled “Briggs 303” and start the reading ([S]final: 5 μM).
Read with ex: 330 nm (20 nm) and em: 465 nm (20 nm) every 30 second for 10 minutes. The velocities are used to analyze and calculate the IC50s.

Each structure is given as a SMILES string.

The record followed here is patent US20080207622A1, “SOLUBLE EPOXIDE HYDROLASE INHIBITORS” (Arete Therapeutics, Inc., priority 2006, published 2008).

Turning to `O=C(Nc1ccc(C(F)(F)F)cc1)Nc1ccc(S(=O)(=O)c2ccccc2)cc1` [Compound 1, 1-(4-Benzenesulfonyl-phenyl)-3-(4-trifluoromethyl-phenyl)-urea], the “% Inhibition” value in series [1] (Conc. 50 nM) stood at 92%.

On to `CS(=O)(=O)c1ccc(NC(=O)Nc2ccc(C(F)(F)F)cc2)cc1` [Compound 2, 1-(4-Methanesulfonyl-phenyl)-3-(4-trifluoromethyl-phenyl)-urea], for which, in series [1] (Conc. 50 nM), the “% Inhibition” value was 79%. Consider `CS(=O)(=O)c1cccc(NC(=O)Nc2ccc(C(F)(F)F)cc2)c1` [Compound 3, 1-(3-Methanesulfonyl-phenyl)-3-(4-trifluoromethyl-phenyl)-urea], for which, in series [1] (Conc. 50 nM), the “% Inhibition” value stood at 88%. Turning to `O=C(Nc1ccccc1)Nc1cccc(S(=O)(=O)CCCN2CCOCC2)c1` [Compound 4, 1-[3-(3-Morpholin-4-yl-propane-1-sulfonyl)-phenyl]-3-phenyl-urea], the “% Inhibition” value in series [1] (Conc. 500 nM) was found to be 74%. Take `COc1ccc(S(=O)(=O)c2ccc(NC(=O)NC34CC5CC(CC(C5)C3)C4)cc2)nn1` [Compound 10, 1-Adamantan-1-yl-3-[4-(6-methoxy-pyridazine-3-sulfonyl)-phenyl]-urea]: the melting point was in the range of 252 to 254 °C. Moreover, in series [1] (Conc. 2000 nM), the “% Inhibition” value turned out to be 100%.
